How the values were obtained:
[1] = target: GST-tagged truncated LRRK2 (Homo sapiens (Human), UniProt Q5S007); assay: LRRK2 Lantha Screen kinase assay; format: biochemical; details: geometric mean of 2-5 determinations unless otherwise indicated (a: >=6 determinations; b: single determination); read-out: LRRK2 WT IC50
mutant G2019S LRRK2 = mutant G2019S LRRK2 (Homo sapiens (Human), UniProt Q5S007, G2019S); assay: LRRK2 Lantha Screen kinase assay, mutant enzyme; format: biochemical; details: geometric mean of 2-5 determinations unless otherwise indicated (a: >=6 determinations; b: single determination)
mutant G2019S LRRK2, sequence (Q5S007 970-2527 G2019S): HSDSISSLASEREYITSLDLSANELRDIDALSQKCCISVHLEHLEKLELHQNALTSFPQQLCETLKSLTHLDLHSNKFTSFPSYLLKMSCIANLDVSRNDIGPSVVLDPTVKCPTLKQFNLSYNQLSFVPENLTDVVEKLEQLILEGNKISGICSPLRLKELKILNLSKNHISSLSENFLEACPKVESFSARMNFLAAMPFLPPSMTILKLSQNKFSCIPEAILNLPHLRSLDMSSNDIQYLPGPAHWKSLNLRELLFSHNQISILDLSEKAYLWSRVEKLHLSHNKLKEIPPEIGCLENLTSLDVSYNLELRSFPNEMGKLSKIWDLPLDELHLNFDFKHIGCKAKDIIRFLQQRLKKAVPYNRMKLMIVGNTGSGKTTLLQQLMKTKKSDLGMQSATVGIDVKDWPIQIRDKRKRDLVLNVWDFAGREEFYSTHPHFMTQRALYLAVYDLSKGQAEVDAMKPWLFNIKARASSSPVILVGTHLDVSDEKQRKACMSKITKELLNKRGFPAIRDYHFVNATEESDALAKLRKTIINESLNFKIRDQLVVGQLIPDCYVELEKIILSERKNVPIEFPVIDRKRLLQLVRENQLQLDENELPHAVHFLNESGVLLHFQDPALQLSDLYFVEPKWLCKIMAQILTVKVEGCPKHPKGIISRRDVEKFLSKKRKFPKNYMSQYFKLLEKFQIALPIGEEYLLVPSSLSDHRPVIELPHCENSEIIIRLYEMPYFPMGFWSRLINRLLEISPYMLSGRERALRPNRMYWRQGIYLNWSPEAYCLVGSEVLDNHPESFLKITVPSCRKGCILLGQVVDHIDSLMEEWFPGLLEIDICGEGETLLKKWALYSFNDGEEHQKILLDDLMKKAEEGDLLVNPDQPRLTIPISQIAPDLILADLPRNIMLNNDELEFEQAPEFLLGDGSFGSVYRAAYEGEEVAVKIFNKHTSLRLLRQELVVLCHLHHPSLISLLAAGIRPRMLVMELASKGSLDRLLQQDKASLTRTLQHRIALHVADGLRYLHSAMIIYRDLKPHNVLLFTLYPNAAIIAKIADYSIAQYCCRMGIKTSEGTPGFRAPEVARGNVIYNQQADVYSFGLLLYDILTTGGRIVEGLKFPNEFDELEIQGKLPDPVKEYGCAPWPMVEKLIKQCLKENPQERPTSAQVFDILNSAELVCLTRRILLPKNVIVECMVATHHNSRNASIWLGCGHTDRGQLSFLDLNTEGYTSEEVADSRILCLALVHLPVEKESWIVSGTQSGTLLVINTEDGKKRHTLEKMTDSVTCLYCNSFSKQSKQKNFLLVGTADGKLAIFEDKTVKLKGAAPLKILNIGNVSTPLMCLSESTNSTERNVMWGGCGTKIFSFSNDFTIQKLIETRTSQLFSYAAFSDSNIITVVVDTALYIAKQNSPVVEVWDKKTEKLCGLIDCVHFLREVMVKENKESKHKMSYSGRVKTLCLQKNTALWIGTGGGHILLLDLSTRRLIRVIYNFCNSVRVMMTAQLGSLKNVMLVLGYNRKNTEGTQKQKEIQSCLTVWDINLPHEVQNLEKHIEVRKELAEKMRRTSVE
Protocol: LRRK2 kinase activity was measured using Lantha Screen technology from Invitrogen. GST-tagged truncated LRRK2 from Invitrogen (Cat # PV4874) was incubated with a fluorescein-labeled peptide substrate based upon ezrin/radixin/moesin (ERM), also known as LRRKtide (Invitrogen cat #PR8976A), in the presence of a dose response of compound. Upon completion, the assay was stopped and detected with a terbium labeled anti-phospho-ERM antibody (Invitrogen, cat #PR8975A). […] Aliquots (3.5 μL) of the 100% DMSO dose response were mixed with 46.5 μL water then 1 μL of this mixture was added to the 3 μL substrate mix in the 384-well plate. The kinase reaction was started with 3 μL of a working solution of LRRK2 enzyme at a concentration of 4 μg/mL. […] The reaction was allowed to progress at room temperature for two hours and then stopped with the addition of 7 μL of detection buffer (20 mM Tris pH 7.6, 0.01% NP-40, 0.02% NaN3, 6 mM EDTA with 2 nM terbium labeled anti-phospho-ERM).
All final concentrations of substrate ATP and enzyme were the same.

GST-tagged truncated LRRK2, sequence (Q5S007 970-2527): as the sequence (Q5S007 970-2527 G2019S) above, with S1050G counted along it

| Compound | IC50 [1] [nM] | IC50 (mutant G2019S LRRK2) [nM] |
| --- | --- | --- |
| Cn1cc(-c2c[nH]c3ncnc(N4CCSCC4)c23)cn1 [Example 119, 5-(1-methyl-1H-pyrazol-4-yl)-4-(thiomorpholin-4-yl)-7H-pyrrolo[2,3-d]pyrimidine] | 71 | 51 |
| Cn1cc(-c2c[nH]c3ncnc(N4CCCC(O)C4)c23)cn1 (centres unmarked) [Example 120, 1-[5-(1-methyl-1H-pyrazol-4-yl)-7H-pyrrolo[2,3-d]pyrimidin-4-yl]piperidin-3-ol] | 44 | 34 |
| C[C@H]1CN(c2ncnc3[nH]cc(-c4cnn(C)c4)c23)CCO1 [Example 121, 4-[(2S)-2-methylmorpholin-4-yl]-5-(1-methyl-1H-pyrazol-4-yl)-7H-pyrrolo[2,3-d]pyrimidine] | 57 | 59 |
| C[C@@H]1CN(c2ncnc3[nH]cc(-c4cnn(C)c4)c23)CCO1 [Example 122, 4-[(2R)-2-methylmorpholin-4-yl]-5-(1-methyl-1H-pyrazol-4-yl)-7H-pyrrolo[2,3-d]pyrimidine] | 67 | 31 |
| Cn1cc(-c2c[nH]c3ncnc(N4CCCC(F)C4)c23)cn1 (centres unmarked) [Example 123, 4-(3-fluoropiperidin-1-yl)-5-(1-methyl-1H-pyrazol-4-yl)-7H-pyrrolo[2,3-d]pyrimidine] | 31 | 27 |
| Cn1cc(-c2c[nH]c3ncnc(N4CCOC(CO)C4)c23)cn1 (centres unmarked) [Example 124, {4-[5-(1-methyl-1H-pyrazol-4-yl)-7H-pyrrolo[2,3-d]pyrimidin-4-yl]morpholin-2-yl}methanol] | 77 | 80 |
| Cc1ccc(OCC2CN(c3ncnc4[nH]cc(-c5cnn(C)c5)c34)CCO2)cn1 (centres unmarked) [Example 125, 5-(1-methyl-1H-pyrazol-4-yl)-4-(2-{[(6-methylpyridin-3-yl)oxy]methyl}morpholin-4-yl)-7H-pyrrolo[2,3-d]pyrimidine] | 54 | 87 |
| CN(C)c1ncnc2[nH]cc(-c3cnn(C)c3)c12 [Example 126, N,N-dimethyl-5-(1-methyl-1H-pyrazol-4-yl)-7H-pyrrolo[2,3-d]pyrimidin-4-amine] | 55 | 35 |
| CN(c1ncnc2[nH]cc(-c3cnn(C)c3)c12)C1CC1 [Example 127, N-cyclopropyl-N-methyl-5-(1-methyl-1H-pyrazol-4-yl)-7H-pyrrolo[2,3-d]pyrimidin-4-amine] | 37 | 37 |
| N#Cc1cccc(-c2c[nH]c3ncnc(N4CCCC(F)(F)C4)c23)c1 [Example 128, 3-[4-(3,3-difluoropiperidin-1-yl)-7H-pyrrolo[2,3-d]pyrimidin-5-yl]benzonitrile] | 79 | 169 |
| N#Cc1cccc(-c2c[nH]c3ncnc(N4CCCC(N)C4)c23)c1 (centres unmarked) [Example 129, 3-[4-(3-aminopiperidin-1-yl)-7H-pyrrolo[2,3-d]pyrimidin-5-yl]benzonitrile] | 14 | 21 |
| N#Cc1cccc(-c2c[nH]c3ncnc(N4CCOC(Cc5noc(C(F)F)n5)C4)c23)c1 (centres unmarked) [Example 130, 3-[4-(2-{[5-(difluoromethyl)-1,2,4-oxadiazol-3-yl]methyl}morpholin-4-yl)-7H-pyrrolo[2,3-d]pyrimidin-5-yl]benzonitrile] | 44 | 134 |
| N#Cc1cccc(-c2c[nH]c3ncnc(N4CCOC(c5nccs5)C4)c23)c1 (centres unmarked) [Example 131, 3-{4-[2-(1,3-thiazol-2-yl)morpholin-4-yl]-7H-pyrrolo[2,3-d]pyrimidin-5-yl}benzonitrile] | 45 | 181 |
| N#Cc1cccc(-c2c[nH]c3ncnc(N4CCC(=O)CC4)c23)c1 [Example 132, 3-[4-(4-oxopiperidin-1-yl)-7H-pyrrolo[2,3-d]pyrimidin-5-yl]benzonitrile] | 66 | 223 |
| N#Cc1cccc(-c2c[nH]c3ncnc(N4CCC(F)(CO)CC4)c23)c1 [Example 133, 3-{4-[4-fluoro-4-(hydroxymethyl)piperidin-1-yl]-7H-pyrrolo[2,3-d]pyrimidin-5-yl}benzonitrile] | 42 | 106 |
| N#Cc1cccc(-c2c[nH]c3ncnc(N4CCOC(c5cccc(O)c5)C4)c23)c1 (centres unmarked) [Example 134, 3-{4-[2-(3-hydroxyphenyl)morpholin-4-yl]-7H-pyrrolo[2,3-d]pyrimidin-5-yl}benzonitrile] | 91 | 281 |
| N#Cc1cccc(-c2c[nH]c3ncnc(N4CCOC(c5noc(C6CC6)n5)C4)c23)c1 (centres unmarked) [Example 135, 3-{4-[2-(5-cyclopropyl-1,2,4-oxadiazol-3-yl)morpholin-4-yl]-7H-pyrrolo[2,3-d]pyrimidin-5-yl}benzonitrile] | 19 | 47 |
| N#Cc1cccc(-c2c[nH]c3ncnc(N4CCC(F)(F)C4)c23)c1 [Example 136, 3-[4-(3,3-difluoropyrrolidin-1-yl)-7H-pyrrolo[2,3-d]pyrimidin-5-yl]benzonitrile] | 74 | 194 |
| N#Cc1cccc(OCC2CN(c3ncnc4[nH]cc(-c5cccc(C#N)c5)c34)CCO2)c1 (centres unmarked) [Example 137, 3-(4-{2-[(3-cyanophenoxy)methyl]morpholin-4-yl}-7H-pyrrolo[2,3-d]pyrimidin-5-yl)benzonitrile] | 30 | 51 |

| Compound | IC50 [1] [nM] | IC50 (mutant G2019S LRRK2) [nM] |
| --- | --- | --- |
| N#Cc1cccc(-c2c[nH]c3ncnc(N4CCCC(O)C4)c23)c1 (centres unmarked) [Example 138, 3-[4-(3-hydroxypiperidin-1-yl)-7H-pyrrolo[2,3-d]pyrimidin-5-yl]benzonitrile] | 10 | 27 |
| N#Cc1cccc(-c2c[nH]c3ncnc(N4CCCC(C(N)=O)C4)c23)c1 (centres unmarked) [Example 139, 1-[5-(3-cyanophenyl)-7H-pyrrolo[2,3-d]pyrimidin-4-yl]piperidine-3-carboxamide] | 49 | 136 |
| CCC1CN(c2ncnc3[nH]cc(-c4cccc(C#N)c4)c23)CCO1 (centres unmarked) [Example 140, 3-[4-(2-ethylmorpholin-4-yl)-7H-pyrrolo[2,3-d]pyrimidin-5-yl]benzonitrile] | 61 | 95 |
| N#Cc1cccc(-c2c[nH]c3ncnc(N4CCOC(c5ccncn5)C4)c23)c1 (centres unmarked) [Example 141, 3-{4-[2-(pyrimidin-4-yl)morpholin-4-yl]-7H-pyrrolo[2,3-d]pyrimidin-5-yl}benzonitrile] | 79 | 193 |
| N#Cc1cccc(-c2c[nH]c3ncnc(N4CCOC(c5nc(C6CC6)no5)C4)c23)c1 (centres unmarked) [Example 142, 3-{4-[2-(3-cyclopropyl-1,2,4-oxadiazol-5-yl)morpholin-4-yl]-7H-pyrrolo[2,3-d]pyrimidin-5-yl}benzonitrile] | 30 | 84 |
| CN(C)CC1CN(c2ncnc3[nH]cc(-c4cccc(C#N)c4)c23)CCO1 (centres unmarked) [Example 143, 3-(4-{2-[(dimethylamino)methyl]morpholin-4-yl}-7H-pyrrolo[2,3-d]pyrimidin-5-yl)benzonitrile] | 45 | 110 |
| N#Cc1cccc(-c2c[nH]c3ncnc(Nc4cn[nH]c4)c23)c1 [Example 144, 3-[4-(1H-pyrazol-4-ylamino)-7H-pyrrolo[2,3-d]pyrimidin-5-yl]benzonitrile] | 69 | 36 |
| Cc1nc(CC2CN(c3ncnc4[nH]cc(-c5cccc(C#N)c5)c34)CCO2)no1 (centres unmarked) [Example 145, 3-(4-{2-[(5-methyl-1,2,4-oxadiazol-3-yl)methyl]morpholin-4-yl}-7H-pyrrolo[2,3-d]pyrimidin-5-yl)benzonitrile] | 55 | 155 |
| Cc1nnc(C2CCCN(c3ncnc4[nH]cc(-c5cccc(C#N)c5)c34)C2)o1 (centres unmarked) [Example 146, 3-{4-[3-(5-methyl-1,3,4-oxadiazol-2-yl)piperidin-1-yl]-7H-pyrrolo[2,3-d]pyrimidin-5-yl}benzonitrile] | 96 | 217 |
| COc1cc(C#N)cc(-c2c[nH]c3ncnc(N(C)C)c23)c1 [Example 147, 3-[4-(dimethylamino)-7H-pyrrolo[2,3-d]pyrimidin-5-yl]-5-methoxybenzonitrile] | 37 | 93 |
| CCn1cc(-c2c[nH]c3ncnc(N4CCOCC4)c23)cn1 [Example 148, 5-(1-ethyl-1H-pyrazol-4-yl)-4-(morpholin-4-yl)-7H-pyrrolo[2,3-d]pyrimidine] | 77 | 92 |
| Cc1cncc(-c2c[nH]c3ncnc(N4CCOCC4)c23)c1 [Example 149, 5-(5-methylpyridin-3-yl)-4-(morpholin-4-yl)-7H-pyrrolo[2,3-d]pyrimidine] | 18 | 30 |
| Clc1cncc(-c2c[nH]c3ncnc(N4CCOCC4)c23)c1 [Example 150, 5-(5-chloropyridin-3-yl)-4-(morpholin-4-yl)-7H-pyrrolo[2,3-d]pyrimidine] | 28 | 36 |
| COc1cncc(-c2c[nH]c3ncnc(N4CCOCC4)c23)n1 [Example 151, 5-(6-methoxypyrazin-2-yl)-4-(morpholin-4-yl)-7H-pyrrolo[2,3-d]pyrimidine] | 32 | 37 |
| Cc1nn(C)cc1-c1c[nH]c2ncnc(N3CCOCC3)c12 [Example 152, 5-(1,3-dimethyl-1H-pyrazol-4-yl)-4-(morpholin-4-yl)-7H-pyrrolo[2,3-d]pyrimidine] | 60 | 91 |
| C[C@H]1COCCN1c1ncnc2[nH]cc(-c3cccc(C#N)c3)c12 [Example 153, 3-{4-[(3S)-3-methylmorpholin-4-yl]-7H-pyrrolo[2,3-d]pyrimidin-5-yl}benzonitrile] | 44 | 165 |
| Cc1nc(N2CCOCC2)c2c(-c3cccc(C#N)c3F)c[nH]c2n1 [Example 154, 2-fluoro-3-[2-methyl-4-(morpholin-4-yl)-7H-pyrrolo[2,3-d]pyrimidin-5-yl]benzonitrile] | 30 | 365 |
| N#Cc1cccc(-c2c[nH]c3ncnc(N4CCC[C@@H](O)C4)c23)c1 [Example 155, 3-{4-[(3R)-3-hydroxypiperidin-1-yl]-7H-pyrrolo[2,3-d]pyrimidin-5-yl}benzonitrile] | 8 | 37 |

From US9156845B2, “4-(substituted amino)-7H-pyrrolo[2,3-d] pyrimidines as LRRK2 inhibitors” (Pfizer Inc., priority 2012, dated 2015)
